Assay results: patent publication US7928182B2, “Glycerol polycarbonate, organic compositions containing same and method for obtaining said compositions” (Condat S.A., priority 2004, dated 2011)

How the values were obtained:
Assay type in all cases: physicochemical
[1] = Combustion heat (ASTM D240); settings: reference samples and control
Protocol: b) The combustion heat (kJ/g) was also measured according to standard ASTM D240. The combustion heat characterises the calorific energy released by a burning compound. The higher this value is, the better fuel a compound is and the more the “fire” is maintained by this factor, which is the temperature.

[2] = Surface tension (ring tensiometer); settings: 25° C., glycerol carbonate alone; in mN/m (unit assumed)
Density (densimeter) = settings: 25° C., glycerol carbonate alone; in g/cm3 (unit assumed)

Row | Combustion heat [1] [kJ/g] | Surface tension [2] | Density (Density (densimeter)) | Compound
1 | 26.4 |  |  | CCO [Ethanol]
2 | 40.2 |  |  | CCCCCCC [Heptane]
3 |  | 53.81 | 1.386 | O=C1OCC(CO)O1 (centres unmarked) [glycerol carbonate]

Row | Compound | Combustion heat [1] [kJ/g] | Surface tension [2] | Density (Density (densimeter))
4 | CO [Methanol] | 19.6 |  | 
